The source of these data is patent US9221816B2, “2-oxo-2,3-dihydro-indoles for the treatment of CNS disorders” (Hoffmann-La Roche Inc., priority 2012, dated 2015).

Experiment [1] has as its system L-687,414-induced hyperlocomotion. The experiment is described as follows: L-687,414-induced hyperlocomotion (Digiscan locomotor activity). Format: in vivo, mouse. Particulars: mice; for ID50 po: p.o. 15 min before s.c. 50 mg/kg L-687,414, dose producing 50% inhibition of hyperlocomotion; for Inhibition, ip: dose ip 30, at the same time as s.c. 50 mg/kg L-687,414, % inhibition of horizontal activity. The procedure: The authors described that hyperlocomotion induced by L-687,414 was inhibited by a series of known antipsychotic drugs. […] These findings predict antipsychotic activity for the present compounds, making them useful for the treatment of schizophrenia and other disorders as described above.
The described compounds of formula I and I-1 reduce L-687,414-induced hyperlocomotion. This was assessed by using a computerized Digiscan 16 Animal Activity Monitoring System (Omnitech Electronics, Columbus, Ohio) to quantify locomotor activity. Animals were kept under a 12 h light/dark cycle and experiments were performed during the light period. Each activity monitoring chamber consisted of a Plexiglas box (41×41×28 cm; W×L×H) with sawdust bedding on the floor surrounded by invisible horizontal and vertical infrared sensor beams. The test boxes were divided by a Plexiglas cross providing each mouse with 20×20 cm of moving space. Cages were connected to a Digiscan Analyzer linked to a computer that constantly collected the beam status information. Records of photocell beam interruptions for individual animals were taken every 5 min over the duration of the experimental session and the sum of the first 6 periods was used as the final parameter. Compounds were administered either p.o. 15 min before a s.c. injection of 50 mg/kg of L-687,414, or i.p. at the same time as a s.c. injection of 50 mg/kg of L-687,414. Mice were then transferred from their home cage to the recording chambers for a 15-min habituation phase allowing free exploration of the new environment. Horizontal activity was then recorded for a 30-min time period. The % inhibition of L-687,414-induced hyperlocomotion was calculated according to the equation: ((Veh+L-687,414 horizontal activity−drug+L-687,414 horizontal activity)/Veh+L-687,414 horizontal activity)×100
ID50 values, defined as doses of each compound producing 50% inhibition of L-687,414-induced hyperlocomotion, were calculated by linear regression analysis of a dose-response data using an Excel-based computer-fitting program.
As data was not presupposed to be normally distributed, groups treated with test compounds were statistically compared with the control (vehicle-treated) group using one-tailed Mann Whitney U tests. In statistics, the Mann-Whitney U test (also called the Mann-Whitney-Wilcoxon (MWW) or Wilcoxon rank-sum test) is a non-parametric statistical hypothesis test for assessing whether one of two samples of independent observations tends to have larger values than the other. It is one of the most well-known non-parametric significance tests. […] P values given in table 1 are one-tailed since only decreases in locomotion were expected and tested for (Mann, H. B., Whitney, D. R. (1947), “On a Test of Whether one of Two Random Variables is Stochastically Larger than the Other”, Annals of Mathematical Statistics, 18 (1), 50-60).

For experiment [2], the system named is behaviors of compound-treated mice. The experiment is described as follows: SmartCube behavioral signature, similarity to atypical antipsychotics. The class given is in vivo. The settings on record: for discrimination rate vs Clozapine / discrimination rate vs Olanzapine / discrimination rate vs Risperidone: SmartCube, i.p. 15 minutes before test, 0.70 or lower = similar; for SmartCube signature: i.p., mice, classification by similarity to drug classes. From the text:
In addition to the reversal of L-687,414 induced hyperlocomotion experiment as described above, some compounds of the present invention have been tested in SmartCube®, an automated system in which the behaviors of compound-treated mice in response to multiple challenges are captured by digital video and analyzed with computer algorithms (Roberds et al., Frontiers in Neuroscience, 2011, Vol. 5, Art. 103, 1-4). In this way, the neuro-pharmacological effects of a test compound can be predicted by similarity to major classes of compounds, such as antipsychotics, anxiolytics and antidepressants.
SmartCube® was used to compare the behavioral signature of a test compound to a database of behavioral signatures obtained from a large set of clinically approved reference drugs, grouped per indications. In this way, the neuro-pharmacological effects of a test compound can be predicted by similarity to major classes of compounds, such as antipsychotics, anxiolytics and antidepressants. This approach is ideally suited to screen collections of existing drugs or drug candidates with previously unknown neuropharmacology, which could expedite the development of new and unexpected treatments for psychiatric disorders.
Some compounds of the present invention were injected i.p. at different doses 15 minutes before the test. At least 8 mice were used in each treatment group. Digital videos of the subjects were processed with computer vision algorithms to extract over 2000 dependent measures including frequency and duration of many different behavioral states. The results of the classifications are presented as bar charts for each dose (mg/kg), the Y-axis indicates the relative probability that the test compound will show efficacy in the specific CNS indication.
For comparison, the behavioral signature of the atypical antipsychotic risperidone is shown in FIG. 3 (for behavioral signatures of further atypical antipsychotic, e.g. clozapine, olanzapine, see also Roberds et al., Frontiers in Neuroscience, 2011, Vol. 5, Art. 103, 1-4). Compounds of the present invention show similar signatures to those of atypical antipsychotics. An independent analysis was performed on the unclassified data to determine the similarity of the example compounds to active doses of known atypical antipsychotics. For this analysis, we use discrimination rate as the measure of separability between the two drugs, i.e. one drug's “distinguishability” from another. A rate equal to 50% (or 0.5) corresponds to zero distinguishability. […] In most cases, the example compounds show a similarity to risperidone, clozapine and olanzapine with a discrimination rate of ≦0.70.

Entries after “also recorded” stand apart in the source; their conditions may differ.

Take `CN1C(=O)C(C)(C)c2ccc(NC(=O)c3ccncc3F)cc21` [Example 29, 3-Fluoro-N-(1,3,3-trimethyl-2-oxoindolin-6-yl)isonicotinamide]: the ID50 po in experiment [1] is 1.08 mg/kg. Further, in experiment [2], the “discrimination rate vs Clozapine” value is reported as 0.63, the “discrimination rate vs Olanzapine” value was found to be 0.58, the “discrimination rate vs Risperidone” value is recorded as 0.56 and the SmartCube signature entry is reported as “similarity to atypical antipsychotics; also recorded: profile similar to that of atypical antipsychotics”.

Consider `CC1(C)C(=O)N(C2CC2)c2cc(NC(=O)c3ccncc3Cl)ccc21` [Example 30, 3-Chloro-N-(1-cyclopropyl-3,3-dimethyl-2-oxoindolin-6-yl)isonicotinamide], for which the ID50 po in experiment [1] was 0.97 mg/kg. Also, in experiment [2], the “discrimination rate vs Clozapine” value was determined as 0.68, the “discrimination rate vs Olanzapine” value came out at 0.67, the “discrimination rate vs Risperidone” value is 0.72 and the SmartCube signature entry is recorded as “similarity to atypical antipsychotics; also recorded: profile similar to that of atypical antipsychotics”.

`CCN1C(=O)C(C)(C)c2ccc(NC(=O)c3cccnc3)cc21` [Example 21, N-(1-Ethyl-3,3-dimethyl-2-oxoindolin-6-yl)nicotinamide]: in experiment [1], the “Inhibition, ip” value is given as 76.6%.

Regarding `CC1(C)C(=O)Nc2cc(NC(=O)c3ccncc3F)ccc21` [Example 72, N-(3,3-Dimethyl-2-oxoindolin-6-yl)-3-fluoroisonicotinamide], the ID50 po in experiment [1] was determined as 2.22 mg/kg.

As to `Cc1cc(C(=O)Nc2cc3c(cc2Cl)C(C)(C)C(=O)N3C)ccn1` [Example 35, N-(5-Chloro-1,3,3-trimethyl-2-oxoindolin-6-yl)-2-methylisonicotinamide], the “Inhibition, ip” value in experiment [1] is 57.3%.

`CN1C(=O)C(C)(C)c2ccc(NC(=O)c3ccncc3Cl)cc21` [Example 27, 3-Chloro-N-(1,3,3-trimethyl-2-oxoindolin-6-yl)isonicotinamide] returned an ID50 po in experiment [1] of 1.95 mg/kg.

Consider `CC1(C)C(=O)N(CCO)c2cc(NC(=O)c3ccncc3F)ccc21` [Example 68, 3-Fluoro-N-(1-(2-hydroxyethyl)-3,3-dimethyl-2-oxoindolin-6-yl)isonicotinamide], for which the “Inhibition, ip” value in experiment [1] was 89.1%.

On to `CC1(C)C(=O)N(CCCO)c2cc(NC(=O)c3ccncc3F)ccc21` [Example 69, 3-Fluoro-N-(1-(3-hydroxypropyl)-3,3-dimethyl-2-oxoindolin-6-yl)isonicotinamide], for which, in experiment [1], the “Inhibition, ip” value turned out to be 82.4%.

As to `Cc1cc(C(=O)Nc2ccc3c(c2)N(C)C(=O)C3(C)C)ccn1` [Example 5, 2-Methyl-N-(1,3,3-trimethyl-2-oxoindolin-6-yl)isonicotinamide], in experiment [1], the “Inhibition, ip” value is 77.2%.

Take `CCN1C(=O)C(C)(C)c2ccc(NC(=O)c3ccncc3Cl)cc21` [Example 40, 3-Chloro-N-(1-ethyl-3,3-dimethyl-2-oxoindolin-6-yl)isonicotinamide]: the “Inhibition, ip” value in experiment [1] was 72.9%.

For `Cc1cc(C(=O)Nc2ccc3c(c2)NC(=O)C3(C)C)ccn1` [Example 1, N-(3,3-Dimethyl-2-oxo-2,3-dihydro-1H-indol-6-yl)-2-methyl-isonicotinamide], the “Inhibition, ip” value in experiment [1] turned out to be 81.6%.

Consider `CN1C(=O)C(C)(C)c2cc(F)c(NC(=O)c3cccnc3)cc21` [Example 24, N-(5-fluoro-1,3,3-trimethyl-2-oxoindolin-6-yl)nicotinamide], for which the “Inhibition, ip” value in experiment [1] was found to be 80.0%.

As for `CCN1C(=O)C(C)(C)c2ccc(NC(=O)c3ccncc3F)cc21` [Example 41, N-(1-ethyl-3,3-dimethyl-2-oxoindolin-6-yl)-3-fluoroisonicotinamide], the “Inhibition, ip” value in experiment [1] worked out at 85.2%.

`Cc1ccncc1C(=O)Nc1ccc2c(c1)N(C)C(=O)C2(C)C` [Example 9, 4-Methyl-N-(1,3,3-trimethyl-2-oxoindolin-6-yl)nicotinamide] came in with an ID50 po in experiment [1] of 6.6 mg/kg.

Turning to `CN1C(=O)C(C)(C)c2cnc(NC(=O)c3ccncc3)cc21` [Example 6, N-(1,3,3-Trimethyl-2-oxo-2,3-dihydro-1H-pyrrolo[3,2-c]pyridin-6-yl)isonicotinamide], the “Inhibition, ip” value in experiment [1] worked out at 64.5%.

For the molecule `CC1(C)C(=O)N(C2CC2)c2cc(NC(=O)c3ccncc3)c(F)cc21` [Example 36, N-(1-cyclopropyl-5-fluoro-3,3-dimethyl-2-oxoindolin-6-yl)isonicotinamide], the “Inhibition, ip” value in experiment [1] was 89.0%.

With `Cc1cc(C(=O)Nc2ccc3c(c2)N(C2CC2)C(=O)C3(C)C)c(F)cn1` [Example 54, N-(1-Cyclopropyl-3,3-dimethyl-2-oxoindolin-6-yl)-5-fluoro-2-methylisonicotinamide], the “Inhibition, ip” value in experiment [1] was 55.6%.

As for `Cc1cc(C(=O)Nc2cc3c(cn2)C(C)(C)C(=O)N3C2CC2)ccn1` [Example 81, N-(1-Cyclopropyl-3,3-dimethyl-2-oxo-2,3-dihydro-1H-pyrrolo[3,2-c]pyridin-6-yl)-2-methylisonicotinamide], the “Inhibition, ip” value in experiment [1] is 53.1%.

As for `CCN1C(=O)C(C)(C)c2ccc(NC(=O)c3ccncc3)cc21` [Example 7, N-(1-ethyl-3,3-dimethyl-2-oxoindolin-6-yl)isonicotinamide], the “Inhibition, ip” value in experiment [1] worked out at 90.4%.

For `CC1(C)C(=O)N(C2COC2)c2cc(NC(=O)c3ccncc3Cl)ccc21` [Example 62, 3-Chloro-N-(3,3-dimethyl-1-(oxetan-3-yl)-2-oxoindolin-6-yl)isonicotinamide], the “Inhibition, ip” value in experiment [1] was found to be 61.7%.

For `CC(C)N1C(=O)C(C)(C)c2ccc(NC(=O)c3cccnc3)cc21` [Example 37, N-(1-Isopropyl-3,3-dimethyl-2-oxoindolin-6-yl)nicotinamide], the “Inhibition, ip” value in experiment [1] stood at 64.0%.
